For 13 molecules, IC50 results are on record in patent US10968203B2, “Pyrimidinyl-pyridyloxy-naphthyl compounds and methods of treating IRE1-related diseases and disorders” (Genentech, Inc., priority 2017, dated 2021).

For the test, the system named is XBP1s-luc 293 LUC. The test can be described thus: cellular PD assay, XBP1s-LUC reporter (Example 903). Type of test: cell-based. Conditions: read-out: XBP1s-luc 293 LUC (IC50). Put shortly: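 A luciferase fusion, in frame and expressed only when the XBP1 transcript is spliced, served as the readout of cellular IRE1α activity in an XBP1-Luc reporter line.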

Molecules are shown by their SMILES. Structures can show the parent of a compound that is named as a salt. Where two headings read alike, the source gives them in different places.

`Cc1ccc2c(NCc3csc(C(C)C)n3)cccc2c1Oc1ncccc1-c1ccnc(N[C@H]2CCCNC2)n1` [Example 256, (S)-4-(2-((5-(((2-Isopropylthiazol-4-yl)methyl)amino)-2-methylnaphthalen-1-yl)oxy)pyridin-3-yl)-N-(piperidin-3-yl)pyrimidin-2-amine]: the IC50 (Table 1) amounted to 210 nM.
Still for that read-out and setting: next, `Cc1ccc2c(NC(=O)c3ccccn3)cccc2c1Oc1ncccc1-c1ccnc(N[C@H]2CCCNC2)n1` [Example 175, (S)—N-(6-Methyl-5-((3-(2-(piperidin-3-ylamino)pyrimidin-4-yl)pyridin-2-yl)oxy)naphthalen-1-yl)picolinamide]: 333 nM; `CCCS(=O)(=O)Nc1c(F)ccc2c(Oc3ncccc3-c3ccnc(N[C@@H]4CNC[C@@H](F)C4)n3)c(C)ccc12` (single isomer, unassigned) [Example 328]: 15.2 nM; `Cc1ccc2c(Oc3ncccc3-c3ccnc(N[C@H]4CCCNC4)n3)c(C)ccc2c1NS(=O)(=O)CCC(F)(F)F` [Example 318, (S)—N-(2,6-Dimethyl-5-((3-(2-(piperidin-3-ylamino)pyrimidin-4-yl)pyridin-2-yl)oxy)naphthalen-1-yl)-3,3,3-trifluoropropane-1-sulfonamide]: 41.7 nM.
In the case of `Cc1ccc2c(NS(=O)(=O)Cc3ccc(C#N)cc3)c(F)ccc2c1Oc1ncccc1-c1ccnc(N[C@H]2CCCNC2)n1` [Example 426, (S)-1-(4-Cyanophenyl)-N-(2-fluoro-6-methyl-5-((3-(2-(piperidin-3-ylamino)pyrimidin-4-yl)pyridin-2-yl)oxy)naphthalen-1-yl)methanesulfonamide hydrochloride], the IC50 (Table 2) is 5 nM.
Turning to `Cc1ccc2c(NC[C@H](C)O)cccc2c1Oc1ncccc1-c1ccnc(N[C@H]2CCCNC2)n1` [Example 301, (S)-1-((6-Methyl-5-((3-(2-((S)-piperidin-3-ylamino)pyrimidin-4-yl)pyridin-2-yl)oxy)naphthalen-1-yl)amino)propan-2-ol], where the note is “Table 1”, the IC50 came to 424 nM.
The same measure, in the same setting: next, `Cc1ccc2c(NC(=O)CC3CC3)cccc2c1Oc1ncccc1-c1ccnc(N[C@H]2CCCNC2)n1` [Example 191, (S)-2-Cyclopropyl-N-(6-methyl-5-((3-(2-(piperidin-3-ylamino)pyrimidin-4-yl)pyridin-2-yl)oxy)naphthalen-1-yl)acetamide]: 234 nM.
For the molecule `Cc1ccc2c(NC(=O)[C@H]3CC3C3CC3)cccc2c1Oc1ncccc1-c1ccnc(N[C@H]2CCCNC2)n1` (single isomer, unassigned) [Example 273], for the setting “Table 1”, the IC50 was 305 nM.
Take `Cc1ccc2c(NC(=O)[C@@H]3CC34CCC4)cccc2c1Oc1ncccc1-c1ccnc(N[C@H]2CCCNC2)n1` (single isomer, unassigned) [Example 340]: the IC50 (Table 1) was found to be 17.7 nM.
Take `Cc1ccc2c(NS(=O)(=O)CCCF)c(F)ccc2c1Oc1ncccc1-c1ccnc(N[C@H]2CCCNC2)n1` [Example 406, (S)-3-Fluoro-N-(2-fluoro-6-methyl-5-((3-(2-(piperidin-3-ylamino)pyrimidin-4-yl)pyridin-2-yl)oxy)naphthalen-1-yl)propane-1-sulfonamide hydrochloride]: the IC50 (Table 2) came out at 31 nM.
Take `Cc1ccc2c(NC(=O)CC3CCCCC3)cccc2c1Oc1ncccc1-c1ccnc(N[C@@H]2CNC[C@H](C)C2)n1` [Example 303, 2-Cyclohexyl-N-(6-methyl-5-((3-(2-(((3S,5R)-5-methylpiperidin-3-yl)amino)pyrimidin-4-yl)pyridin-2-yl)oxy)naphthalen-1-yl)acetamide]: for the setting “Table 1”, the IC50 is 126 nM.
Turning to `CO[C@@H](CNc1cccc2c(Oc3ncccc3-c3ccnc(N[C@@H]4CNC[C@@H](F)C4)n3)c(C)ccc12)C(F)(F)F` (single isomer, unassigned) [Example 493, hydrochloride], the IC50 (Table 2) turned out to be 21 nM.
On to `Cc1cc(NS(=O)(=O)C2CCC2)c2ccccc2c1Oc1ncccc1-c1ccnc(N[C@H]2CC[C@H](N)CC2)n1` [Example 111, N-(4-((3-(2-(((trans)-4-Aminocyclohexyl)amino)pyrimidin-4-yl)pyridin-2-yl)oxy)-3-methylnaphthalen-1-yl)cyclobutanesulfonamide hydrochloride], for which the IC50 (Table 1) was 447 nM.

Usually IC50 stands for the concentration at which inhibition is half-maximal.
